Here are results for 36 compounds from patent US20050197350A1, “Novel quinoline, tetrahydroquinazoline, and pyrimidine derivatives and methods of treatment related to the use thereof” (TAISHO PHARMACEUTICAL CO., LTD., priority 2003, published 2005).

The test system of this assay is MCH receptors. In words: MCH receptor activity class (method not given). To be noted: class by percent of control at 10^-7 M or IC50.

In the case of `CCc1cccc(CC)c1NC(=S)N[C@H]1CC[C@@H](Nc2nc3c(c(N(C)C)n2)CCCC3)CC1` [compound 1757], the class is 1 (Class 1: The value of percent of control at 10^−7 M was less than 40% or the value of IC50 was less than 50 nM.). Consider `Cc1ccc(NC(=S)N[C@H]2CC[C@@H](Nc3nc4c(c(N(C)C)n3)CCCC4)CC2)c(Br)c1` [compound 1758], for which the class is given as 3 (Class 3 The value of percent of control at 10^−7 M was more than 60% or the value of IC50 was more than 200 nM.). In the case of `CN(C)c1nc(N[C@H]2CC[C@@H](NC(=S)NCc3ccccc3Cl)CC2)nc2c1CCCC2` [compound 1759], the class is 3 (Class 3 The value of percent of control at 10^−7 M was more than 60% or the value of IC50 was more than 200 nM.). Consider `CCc1cccc(C)c1NC(=S)N[C@H]1CC[C@@H](Nc2nc3c(c(N(C)C)n2)CCCC3)CC1` [compound 1760], for which the class was 3 (Class 3 The value of percent of control at 10^−7 M was more than 60% or the value of IC50 was more than 200 nM.).

`CC(C)c1ccccc1NC(=S)N[C@H]1CC[C@@H](Nc2nc3c(c(N(C)C)n2)CCCC3)CC1` [compound 1761]: the class was 3 (Class 3 The value of percent of control at 10^−7 M was more than 60% or the value of IC50 was more than 200 nM.).

Take `COC(=O)c1cccc(NC(=S)N[C@H]2CC[C@@H](Nc3nc4c(c(N(C)C)n3)CCCC4)CC2)c1` [compound 1762]: the class is 3 (Class 3 The value of percent of control at 10^−7 M was more than 60% or the value of IC50 was more than 200 nM.).

Turning to `Cc1cc(Br)cc(C)c1NC(=S)N[C@H]1CC[C@@H](Nc2nc3c(c(N(C)C)n2)CCCC3)CC1` [compound 1763, N-(4-bromo-2,6-dimethylphenyl)-N′-(cis-4-{[4-(dimethylamino)-5,6,7,8-tetrahydroquinazolin-2-yl]amino}cyclohexyl)thiourea], the class was 1 (Class 1: The value of percent of control at 10^−7 M was less than 40% or the value of IC50 was less than 50 nM.).

For `Cc1cc(Br)ccc1NC(=S)N[C@H]1CC[C@@H](Nc2nc3c(c(N(C)C)n2)CCCC3)CC1` [compound 1764, N-(4-bromo-2-methylphenyl)-N′-(cis-4-{[4-(dimethylamino)-5,6,7,8-tetrahydroquinazolin-2-yl]amino}cyclohexyl)thiourea], the class is given as 1 (Class 1: The value of percent of control at 10^−7 M was less than 40% or the value of IC50 was less than 50 nM.). As for `CN(C)c1nc(N[C@H]2CC[C@@H](NC(=S)Nc3ccc(Br)cc3C(F)(F)F)CC2)nc2c1CCCC2` [compound 1765], the class is reported as 1 (Class 1: The value of percent of control at 10^−7 M was less than 40% or the value of IC50 was less than 50 nM.).

For the compound `Cc1cc(Cl)ccc1NC(=S)N[C@H]1CC[C@@H](Nc2nc3c(c(N(C)C)n2)CCCC3)CC1` [compound 1766, N-(4-chloro-2-methylphenyl)-N′-(cis-4-{[4-(dimethylamino)-5,6,7,8-tetrahydroquinazolin-2-yl]amino}cyclohexyl)thiourea], the class was 1 (Class 1: The value of percent of control at 10^−7 M was less than 40% or the value of IC50 was less than 50 nM.).

As for `CN(C)c1nc(N[C@H]2CC[C@@H](NC(=S)NCc3cccc4ccccc34)CC2)nc2c1CCCC2` [compound 1767], the class was 3 (Class 3 The value of percent of control at 10^−7 M was more than 60% or the value of IC50 was more than 200 nM.). For `COc1cccc(CNC(=S)N[C@H]2CC[C@@H](Nc3nc4c(c(N(C)C)n3)CCCC4)CC2)c1OC` [compound 1768], the class was 3 (Class 3 The value of percent of control at 10^−7 M was more than 60% or the value of IC50 was more than 200 nM.). Regarding `Cc1cc(C)c(NC(=S)N[C@H]2CC[C@@H](Nc3nc4c(c(N(C)C)n3)CCCC4)CC2)cc1C` [compound 1769], the class is 3 (Class 3 The value of percent of control at 10^−7 M was more than 60% or the value of IC50 was more than 200 nM.).

With `CN(C)c1nc(N[C@H]2CC[C@@H](NC(=S)Nc3ccccc3-c3ccccc3)CC2)nc2c1CCCC2` [compound 1770], the class is 3 (Class 3 The value of percent of control at 10^−7 M was more than 60% or the value of IC50 was more than 200 nM.). For `Cc1cc([N+](=O)[O-])ccc1NC(=S)N[C@H]1CC[C@@H](Nc2nc3c(c(N(C)C)n2)CCCC3)CC1` [compound 1771], the class was 3 (Class 3 The value of percent of control at 10^−7 M was more than 60% or the value of IC50 was more than 200 nM.). In the case of `CN(C)c1nc(N[C@H]2CC[C@@H](NC(=S)NCc3cccc(Cl)c3)CC2)nc2c1CCCC2` [compound 1772], the class was 3 (Class 3 The value of percent of control at 10^−7 M was more than 60% or the value of IC50 was more than 200 nM.). In the case of `Cc1cc(F)ccc1NC(=S)N[C@H]1CC[C@@H](Nc2nc3c(c(N(C)C)n2)CCCC3)CC1` [compound 1775], the class is given as 2 (Class 2: The value of percent of control at 10^−7 M was from 40% to 60% or the value of IC′50 was from 50 nM to 200 nM.). On to `COc1ccc(NC(=S)N[C@H]2CC[C@@H](Nc3nc4c(c(N(C)C)n3)CCCC4)CC2)c(C)c1` [compound 1776], for which the class is 2 (Class 2: The value of percent of control at 10^−7 M was from 40% to 60% or the value of IC′50 was from 50 nM to 200 nM.). On to `COc1cc(OC)c(NC(=S)N[C@H]2CC[C@@H](Nc3nc4c(c(N(C)C)n3)CCCC4)CC2)cc1Cl` [compound 1777], for which the class is listed as 1 (Class 1: The value of percent of control at 10^−7 M was less than 40% or the value of IC50 was less than 50 nM.).

Regarding `C[C@@H](NC(=S)N[C@H]1CC[C@@H](Nc2nc3c(c(N(C)C)n2)CCCC3)CC1)c1ccccc1` [compound 1778], the class is on record as 3 (Class 3 The value of percent of control at 10^−7 M was more than 60% or the value of IC50 was more than 200 nM.).

For the compound `Cc1cccc(NC(=S)N[C@H]2CC[C@@H](Nc3nc4c(c(N(C)C)n3)CCCC4)CC2)c1C` [compound 1779], the class is recorded as 3 (Class 3 The value of percent of control at 10^−7 M was more than 60% or the value of IC50 was more than 200 nM.). `CN(C)c1nc(N[C@H]2CC[C@@H](NC(=S)Nc3c(F)cc(Br)cc3Br)CC2)nc2c1CCCC2` [compound 1780, N-(2,4-dibromo-6-fluorophenyl)-N′-(cis-4-{[4-(dimethylamino)-5,6,7,8-tetrahydroquinazolin-2-yl]amino}cyclohexyl)thiourea]: the class is listed as 2 (Class 2: The value of percent of control at 10^−7 M was from 40% to 60% or the value of IC′50 was from 50 nM to 200 nM.). Turning to `Cc1cc(Cl)cc(Cl)c1NC(=S)N[C@H]1CC[C@@H](Nc2nc3c(c(N(C)C)n2)CCCC3)CC1` [compound 1781, N-(2,4-dichloro-6-methylphenyl)-N′-(cis-4-{[4-(dimethylamino)-5,6,7,8-tetrahydroquinazolin-2-yl]amino}cyclohexyl)thiourea], the class was 1 (Class 1: The value of percent of control at 10^−7 M was less than 40% or the value of IC50 was less than 50 nM.). Regarding `CCOc1ccccc1NC(=S)N[C@H]1CC[C@@H](Nc2nc3c(c(N(C)C)n2)CCCC3)CC1` [compound 1782], the class was 2 (Class 2: The value of percent of control at 10^−7 M was from 40% to 60% or the value of IC′50 was from 50 nM to 200 nM.). Regarding `Cc1cccc(C(C)C)c1NC(=S)N[C@H]1CC[C@@H](Nc2nc3c(c(N(C)C)n2)CCCC3)CC1` [compound 1783], the class is 3 (Class 3 The value of percent of control at 10^−7 M was more than 60% or the value of IC50 was more than 200 nM.).

On to `CN(C)c1nc(N[C@H]2CC[C@@H](NC(=S)Nc3ccc4c(c3)OCCO4)CC2)nc2c1CCCC2` [compound 1784], for which the class is recorded as 3 (Class 3 The value of percent of control at 10^−7 M was more than 60% or the value of IC50 was more than 200 nM.). `CN(C)c1nc(N[C@H]2CC[C@@H](NC(=S)Nc3ccc4c(c3)OCO4)CC2)nc2c1CCCC2` [compound 1785]: the class is 3 (Class 3 The value of percent of control at 10^−7 M was more than 60% or the value of IC50 was more than 200 nM.).

In the case of `Cc1c(Cl)cccc1NC(=S)N[C@H]1CC[C@@H](Nc2nc3c(c(N(C)C)n2)CCCC3)CC1` [compound 1786], the class was 3 (Class 3 The value of percent of control at 10^−7 M was more than 60% or the value of IC50 was more than 200 nM.). The same measure for `CN(C)c1nc(N[C@H]2CC[C@@H](NC(=S)Nc3ccc(Br)cc3OC(F)(F)F)CC2)nc2c1CCCC2` [compound 1787]: 2 (Class 2: The value of percent of control at 10^−7 M was from 40% to 60% or the value of IC′50 was from 50 nM to 200 nM.); for `COc1cc(NC(=S)N[C@H]2CC[C@@H](Nc3nc4c(c(N(C)C)n3)CCCC4)CC2)c(OC)cc1Cl` [compound 1788]: 2 (Class 2: The value of percent of control at 10^−7 M was from 40% to 60% or the value of IC′50 was from 50 nM to 200 nM.). Take `Cc1onc(-c2ccccc2)c1NC(=S)N[C@H]1CC[C@@H](Nc2nc3c(c(N(C)C)n2)CCCC3)CC1` [compound 1789]: the class is given as 3 (Class 3 The value of percent of control at 10^−7 M was more than 60% or the value of IC50 was more than 200 nM.). As for `CN(C)c1nc(NC2CCC(NC(=S)NC3CC4CCC3C4)CC2)nc2c1CCCC2` (stereo not drawn) [compound 1790], the class was 3 (Class 3 The value of percent of control at 10^−7 M was more than 60% or the value of IC50 was more than 200 nM.). Regarding `COC(=O)c1scc(C)c1NC(=S)N[C@H]1CC[C@@H](Nc2nc3c(c(N(C)C)n2)CCCC3)CC1` [compound 1791], the class is recorded as 3 (Class 3 The value of percent of control at 10^−7 M was more than 60% or the value of IC50 was more than 200 nM.).

For the compound `COC(=O)c1sccc1NC(=S)N[C@H]1CC[C@@H](Nc2nc3c(c(N(C)C)n2)CCCC3)CC1` [compound 1792], the class is recorded as 3 (Class 3 The value of percent of control at 10^−7 M was more than 60% or the value of IC50 was more than 200 nM.). Consider `CCCCc1ccc(NC(=S)N[C@H]2CC[C@@H](Nc3nc4c(c(N(C)C)n3)CCCC4)CC2)c(C)c1` [compound 1793], for which the class is 3 (Class 3 The value of percent of control at 10^−7 M was more than 60% or the value of IC50 was more than 200 nM.). As to `CN(C)c1nc(N[C@H]2CC[C@@H](NC(=O)Nc3cc(Cl)cc(Cl)c3)CC2)nc2c1CCCC2` [compound 1794], the class is 3 (Class 3 The value of percent of control at 10^−7 M was more than 60% or the value of IC50 was more than 200 nM.).
